The subject of test [1] is White New Zealand male rabbits. Description: In vivo β-adrenergic blockade, isoproterenol challenge (Protocol 1). Conditions: for decrease of left ventricular contractility (% of isoproterenol effect): doses that completely diminished isoproterenol-dependent increase in heart rate: atenolol 1 mg/kg, carvedilol 0.3 mg/kg, Compound 8c 1 mg/kg, mean±SEM. Set-up: species or system rabbit. As for the experimental part: (§1) Studies were performed on White New Zealand male rabbits (2-3 kg weight). Animals were initially anesthetized with ketamine (50 mg/kg; IM) and xylazine (6 mg/kg, IM). Subsequently, animals were intubated (via tracheotomy; 3 mm tube) and ventilated with 2% isoflurane (mixed in 95% O2+5% CO2). Each rabbit was instrumented for LV pressure (3F Millar catheter) through right carotid artery, arterial pressure (3F catheter, Cook Instruments) through left femoral artery, which was connected to a fluid-filled pressure transducer (BD Instruments), and ECG. Both pressure transducers were zeroed against atmospheric pressure, and calibrated before each study using an analog manometer. Upon completion of instrumentation, isoflurane was reduced to 1.25%, and the animal was covered for maintenance of body core temperature. Arterial and LV blood pressures (LVP) and the ECG signals were simultaneously digitally recorded on a PC. The recording system (Gould Instruments) and the corresponding software (Ponema, Gould Instruments) facilitated detailed calculation of various parameters directly from all signals and record on a separate file with a 1 sec resolution. Upon completion of the study protocol, rabbits were euthenized by isoflurane overdose (5% for at least 1 minute) and cardiac arrest through IV infusion of 5 ml 3 molar potassium chloride.
(§2) Once the physiological variables were stable, effects of each drug on hemodynamics and ECG were determined based on two different protocols: 1) infusion of a compound of the present invention to determine the effects of the compound itself mainly on contractility, and other hemodynamic indices; and 2) infusion of a compound of the present invention while the system was challenged with 0.5 ug/kg isoproterenol to determine the beta-adrenergic antagonism properties of each tested compound.
(§3) White New Zealand male rabbits (2-3 kg) were anesthetized and ventilated (95% O2+5% CO2) with 1.25% isoflurane. Each animal was instrumented for LV pressure (Millar, through left carotid artery), arterial pressure (left femoral artery), infusion (jugular vein), and electrocardiogram. The animals were administered intravenously based on one of these protocols:
Protocol 1: β-adrenergic blockade (isoproterenol challenge).

For another test, the system named is α1-adrenergic receptor. Description: Non-selective α1-adrenergic receptor assay using rat forebrain membranes. It is filed as binding. As for the experimental part:
(§4) The ability of Compounds 25 and 8c to inhibit PDE3 and β-adrenergic receptor activity was examined both in vitro and in vivo. […] Non-selective β-adrenergic and β1-adrenergic radioligand binding assays were performed using rat cortical membranes; β2-adrenergic receptor assays were performed using membranes isolated from CHO cells expressing human, recombinant b2-adrenergic receptor; non-selective α1-adrenergic receptor assays were performed using rat forebrain membranes; and PDE3 binding assays were performed on human platelets. Values in percent illustrate percent inhibition at 1000 nM concentration.

The subject of test [2] is White New Zealand male rabbits. Description: In vivo hemodynamic effects of compounds administered alone (Protocol 2). Set-up: species or system rabbit. The conditions noted are these: for mean arterial pressure: doses that completely diminished isoproterenol-dependent increase in heart rate, Protocol 2, FIG. 15; for left ventricular contractility when administered alone: protocol 2, relative to control, FIGS. 2, 12. The method, then: as §1, §2, §3
Protocol 2: PDE3 inhibition (effects of compounds when administered alone).

Another test deals with T1, β1-adrenergic receptor (Rattus norvegicus, UniProt P18090).
T1 construct: from tissue; host or cells: rat cortical membranes
Nature of the test: β1-adrenergic radioligand binding assay using rat cortical membranes. The conditions noted are these: at 1000 nM concentration, read-out: β1-adrenergic percent inhibition. The method, then:
(§5) Non-selective β-adrenergic and β1-adrenergic radioligand binding assays were performed using rat cortical membranes; β2-adrenergic receptor assays were performed using membranes isolated from CHO cells expressing human, recombinant b2-adrenergic receptor; non-selective α1-adrenergic receptor assays were performed using rat forebrain membranes; and PDE3 binding assays were performed on human platelets. Values in percent illustrate percent inhibition at 1000 nM concentration.

The test system of test [3] is naive anesthetized canines. Description: Contractility in naive anesthetized canines (protocol 2). In kind it is in vivo, canine. Conditions: administered alone (protocol 2), FIG. 17.
In a further test the target is T2, PDE3 (Homo sapiens, UniProt Q14432).
T2 construct: from tissue; host or cells: human platelets
Description: In vitro assay for cAMP PDE-3 inhibitory activity. It is filed as biochemical. The conditions noted are these: human platelet cyclic AMP phosphodiesterase, bound stated. The method, then:
Human platelet cyclic AMP phosphodiesterase was prepared according to the method of Alvarez et al., Mol. Pharmacol. 29: 554 (1986). The PDE incubation medium contained 10 mM Tris-HCl buffer, pH 7.7, 10 mM MgSO4, and 1 μM […] (0.2 μCi) in a total volume of 1.0 mL. Test compounds were dissolved in DMSO immediately prior to addition to the incubation medium, and the resulting mixture was allowed to stand for 10 minutes prior to the addition of enzyme. Following the addition of PDE, the contents were mixed and incubated for 10 minutes at 30° C. Three assays each were performed for each of five test compound concentrations, the mean of the determinations (n=3) at each concentration was plotted, and IC50 values were determined graphically.
as §4

Test [4] concerns the target T3, human recombinant beta-2 receptors (Homo sapiens, UniProt P07550).
T3 construct: expressed in transfected cells; host or cells: CHO-WT21 cells
Nature of the test: β2-receptor radioligand binding, [125I] iodocyanopindolol, CHO-WT21 cells. The conditions noted are these: at 100 nM. As for the experimental part:
as §5

The target in test [5] is T4, human recombinant beta-1 receptors (Homo sapiens, UniProt P08588).
T4 construct: expressed in transfected cells; host or cells: CHO-REX16 cells
Nature of the test: β1-receptor radioligand binding, [125I] iodocyanopindolol, CHO-REX16 cells. Conditions: at 100 nM. As for the experimental part: […] receptor binding was measured in human recombinant beta-1 receptors expressed in CHO-REX16 cells, using [^125I] (-) iodocyanopindolol (2000 Ci/mmol) as the radioligand, as described in Kalaria et al., J. Neurochem. 53: 1772-81 (1998), and Minneman et al., Mol. Pharmacol. 16: 34-46 (1979).

Where [6] appears, read: read-out: PDE IC50 inhibition values.

SMILES strings stand for the structures. Like-named read-outs stand apart in the source and are kept apart here. Some results are limits rather than exact numbers.

The term inhibition denotes the drop in the measured response relative to a control, in per cent. What is called ED50 is the dose that gives a 50% effect, or the effect in half of the subjects. For orientation: IC50 means the point on the concentration scale where inhibition reaches its midpoint.

T2 sequence (Q14432 whole entry): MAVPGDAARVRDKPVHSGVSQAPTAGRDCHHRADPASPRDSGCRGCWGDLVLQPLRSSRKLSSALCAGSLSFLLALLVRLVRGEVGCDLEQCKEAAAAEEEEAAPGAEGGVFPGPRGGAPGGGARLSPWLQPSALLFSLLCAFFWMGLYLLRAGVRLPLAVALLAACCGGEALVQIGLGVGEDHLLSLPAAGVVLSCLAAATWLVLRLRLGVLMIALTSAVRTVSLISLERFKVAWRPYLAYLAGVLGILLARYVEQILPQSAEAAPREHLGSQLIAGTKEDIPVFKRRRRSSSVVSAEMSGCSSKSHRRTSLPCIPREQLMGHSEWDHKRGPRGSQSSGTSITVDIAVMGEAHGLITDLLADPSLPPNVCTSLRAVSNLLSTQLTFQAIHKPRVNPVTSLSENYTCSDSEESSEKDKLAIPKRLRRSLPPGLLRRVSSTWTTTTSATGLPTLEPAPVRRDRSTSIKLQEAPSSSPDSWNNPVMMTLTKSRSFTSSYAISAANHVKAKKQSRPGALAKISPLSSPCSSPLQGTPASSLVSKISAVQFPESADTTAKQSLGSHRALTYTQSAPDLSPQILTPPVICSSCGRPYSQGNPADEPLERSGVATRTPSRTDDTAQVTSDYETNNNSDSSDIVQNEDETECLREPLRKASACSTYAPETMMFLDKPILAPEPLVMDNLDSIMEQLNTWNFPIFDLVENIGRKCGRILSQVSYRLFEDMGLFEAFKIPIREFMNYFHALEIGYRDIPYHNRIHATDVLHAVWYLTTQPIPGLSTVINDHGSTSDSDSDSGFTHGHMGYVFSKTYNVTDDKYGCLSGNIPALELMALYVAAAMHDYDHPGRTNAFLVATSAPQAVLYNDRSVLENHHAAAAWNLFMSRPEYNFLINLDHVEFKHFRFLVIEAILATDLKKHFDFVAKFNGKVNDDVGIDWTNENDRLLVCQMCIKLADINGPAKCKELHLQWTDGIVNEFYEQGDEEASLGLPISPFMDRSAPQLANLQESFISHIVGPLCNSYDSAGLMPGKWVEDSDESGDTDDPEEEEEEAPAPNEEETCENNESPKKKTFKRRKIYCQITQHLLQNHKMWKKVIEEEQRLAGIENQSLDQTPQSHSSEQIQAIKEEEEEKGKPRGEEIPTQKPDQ
T4 sequence (P08588 whole entry): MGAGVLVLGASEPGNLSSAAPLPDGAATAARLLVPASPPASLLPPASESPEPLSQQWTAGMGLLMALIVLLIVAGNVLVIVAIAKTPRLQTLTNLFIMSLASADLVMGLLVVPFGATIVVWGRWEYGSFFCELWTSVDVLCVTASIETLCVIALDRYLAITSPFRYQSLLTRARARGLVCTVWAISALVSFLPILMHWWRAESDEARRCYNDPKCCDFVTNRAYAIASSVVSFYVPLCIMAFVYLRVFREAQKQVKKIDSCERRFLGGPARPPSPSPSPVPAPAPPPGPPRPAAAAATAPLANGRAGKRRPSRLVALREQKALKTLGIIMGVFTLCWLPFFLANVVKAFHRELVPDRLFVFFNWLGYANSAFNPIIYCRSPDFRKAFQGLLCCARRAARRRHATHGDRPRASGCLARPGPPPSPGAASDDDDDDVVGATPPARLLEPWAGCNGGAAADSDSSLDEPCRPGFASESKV
T3 sequence (P07550 whole entry): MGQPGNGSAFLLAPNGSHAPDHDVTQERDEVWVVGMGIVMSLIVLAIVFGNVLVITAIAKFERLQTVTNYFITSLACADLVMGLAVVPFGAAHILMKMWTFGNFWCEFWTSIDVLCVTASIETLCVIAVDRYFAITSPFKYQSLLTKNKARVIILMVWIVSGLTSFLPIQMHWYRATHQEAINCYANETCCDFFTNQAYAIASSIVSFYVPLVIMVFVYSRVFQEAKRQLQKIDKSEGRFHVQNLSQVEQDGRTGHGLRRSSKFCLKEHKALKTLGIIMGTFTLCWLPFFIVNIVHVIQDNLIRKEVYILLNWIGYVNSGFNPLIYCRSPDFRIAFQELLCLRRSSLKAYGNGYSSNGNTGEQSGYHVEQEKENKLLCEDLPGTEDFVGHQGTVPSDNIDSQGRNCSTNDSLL
T1 sequence (P18090 whole entry): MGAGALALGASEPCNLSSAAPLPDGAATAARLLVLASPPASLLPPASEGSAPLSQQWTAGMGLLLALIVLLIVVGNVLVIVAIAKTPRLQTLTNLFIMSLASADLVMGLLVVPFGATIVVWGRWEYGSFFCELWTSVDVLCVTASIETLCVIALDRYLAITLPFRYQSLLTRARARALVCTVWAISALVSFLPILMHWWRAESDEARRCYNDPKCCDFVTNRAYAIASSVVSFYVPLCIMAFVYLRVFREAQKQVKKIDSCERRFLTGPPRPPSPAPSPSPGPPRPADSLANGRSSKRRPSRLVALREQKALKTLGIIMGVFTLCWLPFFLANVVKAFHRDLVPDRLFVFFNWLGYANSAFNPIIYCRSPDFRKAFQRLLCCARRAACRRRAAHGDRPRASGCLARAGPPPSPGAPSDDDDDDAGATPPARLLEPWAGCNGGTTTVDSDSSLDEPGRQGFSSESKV

`CC(C)NCC(O)COc1ccc(CC(N)=O)cc1` (stereo not drawn) [Atenolol, reference compound]: in test [1], the “decrease of left ventricular contractility (% of isoproterenol effect)” value stood at 82±2%. In the test on α1-adrenergic receptor, the “α1-adrenergic IC50, nM” value is “inactive”. In addition, in test [2], the mean arterial pressure entry is reported as “decreased mean arterial pressure” and the “left ventricular contractility when administered alone” value is listed as “decreased contractility”. The inhibition at 1 µM at β1-adrenergic receptor turned out to be 23%.

As for `COc1ccccc1OCCNCC(O)COc1cccc2[nH]c3ccccc3c12` (stereo not drawn) [Carvedilol, reference compound], the “contractility (LV+dP/dtmax) at ED50” value in test [1] (Compound 25 0.3 mg/kg, carvedilol 0.1 mg/kg, Protocol 1, FIG. 13) is recorded as “decreased this parameter”. Besides, the ED50 in test [1] (Oryctolagus cuniculus, isoproterenol challenge (0.5 μg/kg), intravenous, read-out: ED50, dose that diminished isoproterenol-dependent increase in HR by 50%) came out at 0.1 mg/kg. In addition, in test [1] (compared to control, Protocol 1, FIG. 13), the “relaxation properties (Tau) at ED50” value is “negative lusitropic effect”. Also, the “decrease of left ventricular contractility (% of isoproterenol effect)” value in test [1] worked out at 82±7%. In addition, the IC50 against α1-adrenergic receptor came out at […]. In addition, in test [2], the mean arterial pressure result is reported as “decreased mean arterial pressure” and the “left ventricular contractility when administered alone” value is reported as “decreased contractility”. For the same molecule, in test [3], the “contractility in naive anesthetized canines” value was “decreased this parameter at the higher doses”.

For `O=C1CCC(c2ccc(OCC(=O)N3CCC(NC[C@H](O)COc4ccccc4Br)CC3)c(Cl)c2)=NN1` [Compound 8d, 6-[4-(2-{4-[3-(2-bromo-phenoxy)-2-hydroxy-propylamino]-piperidin-1-yl}-2-oxo-ethoxy)-3-chloro-phenyl]-4,5-dihydro-2H-pyridazin-3-one], the figures for the half-inhibitory concentration (IC50) at PDE3 (read-out: PDE3 inhibition IC50) and at PDE3 (setting [6]) were under 1000 nM and under 100 nM, respectively. The inhibition at 0.1 µM in test [4] and in test [5] was over 25% each time.

As to `O=C1CCC(c2ccc(OCC(=O)N3CCC(NC[C@H](O)COc4ccccc4C(F)(F)F)CC3)c(Cl)c2)=NN1` [Compound 8g, 6-[3-chloro-4-(2-{4-[2-hydroxy-3-(2-trifluoromethyl-phenoxy)-propylamino]-piperidin-1-yl}-2-oxo-ethoxy)-phenyl]-4,5-dihydro-2H-pyridazin-3-one], the figures for the IC50 on PDE3 (read-out: PDE3 inhibition IC50) and on PDE3 (setting [6]) were under 1000 nM and under 100 nM, respectively. Besides, the inhibition at 0.1 µM in test [4] and in test [5] was over 25% in each case.

On to `Cc1ccc(OC[C@@H](O)CNC2CCN(C(=O)COc3ccc(C4=NNC(=O)CC4)cc3Cl)CC2)cc1` [Compound 8p, 6-(3-chloro-4-{2-[4-(2-hydroxy-3-p-tolyloxy-propylamino)-piperidin-1-yl]-2-oxo-ethoxy}-phenyl)-4,5-dihydro-2H-pyridazin-3-one], for which, at PDE3 (read-out: PDE3 inhibition IC50), the IC50 was under 1000 nM. In test [4], the inhibition at 0.1 µM was over 25%.

For the molecule `COCCc1ccc(OC[C@@H](O)CNCCOc2ccc(C3=NNC(=O)CC3)cc2Cl)cc1` [Compound 41, 6-[3-Chloro-4-(3-{(S)-2-hydroxy-propylamino]-ethoxy}-phenyl)-4,5-dihydro-2H-pyridazin-3-one], the IC50 was under 1000 nM on PDE3 (read-out: PDE3 inhibition IC50) and under 100 nM at PDE3 (setting [6]). Further, the inhibition at 0.1 µM in test [5] is over 25%.

Turning to `COCCc1ccc(OC[C@@H](O)CNCCCCOc2ccc(C3=NNC(=O)CC3)cc2Cl)cc1` [Compound 44], the IC50 on PDE3 (read-out: PDE3 inhibition IC50) is under 1000 nM. For the same molecule, the inhibition at 0.1 µM in test [5] is over 25%.

As to `CC(C)(CNC(=O)COc1ccc(C2=NNC(=O)CC2)cc1Cl)NCC(O)COc1cccc2[nH]c3ccccc3c12` (stereo not drawn) [Compound 49, N-{2-[3-(9H-carbazol-4-yloxy)-2-hydroxy-propylamino]-2-methyl-propyl}-2-[2-chloro-4-(6-oxo-1,4,5,6-tetrahydro-pyridazin-3-yl)-phenoxy]-acetamide], the IC50 at PDE3 (read-out: PDE3 inhibition IC50) is under 1000 nM; at PDE3 (setting [6]) it was under 100 nM. For the same molecule, the inhibition at 0.1 µM in test [4] and in test [5] was over 25% each time.

Consider `O=C1CCC(c2ccc(OCC(=O)N3CCC(NCC(O)COc4cccc5[nH]c6ccccc6c45)CC3)c(Cl)c2)=NN1` (stereo not drawn) [Compound 63, 6-[4-(2-{4-[3-(9H-Carbazol-4-yloxy)-2-hydroxy-propylamino]-piperidin-1-yl}-2-oxo-ethoxy)-3-chloro-phenyl]-4,5-dihydro-2H-pyridazin-3-one], for which the IC50 at PDE3 (read-out: PDE3 inhibition IC50) is under 1000 nM.

For `O=C1CCC(c2ccc(OCCCNCC(O)COc3cccc4[nH]c5ccccc5c34)c(Cl)c2)=NN1` (stereo not drawn) [Compound 64, 6-(4-{3-[3-(9H-Carbazol-4-yloxy)-2-hydroxy-propylamino]-propoxy}-3-chloro-phenyl)-4,5-dihydro-2H-pyridazin-3-one], the IC50 was under 1000 nM on PDE3 (read-out: PDE3 inhibition IC50) and under 100 nM at PDE3 (setting [6]).

Take `O=C(COc1ccc(C2=NNC(=O)CC2)cc1Cl)NCCNCC(O)COc1cccc2[nH]c3ccccc3c12` (stereo not drawn) [Compound 70]: the IC50 on PDE3 (read-out: PDE3 inhibition IC50) was under 1000 nM; at PDE3 (setting [6]), under 100 nM.

Regarding `CC(C)(CNC(=O)COc1ccc(C2=NNC(=O)CC2)cc1Cl)NCC(O)COc1c(Br)ccc2[nH]c3ccccc3c12` (stereo not drawn) [Compound 72a, N-{2-[3-(3-Bromo-9H-carbazol-4-yloxy)-2-hydroxy-propylamino]-2-methyl-propyl}-2-[2-chloro-4-(6-oxo-1,4,5,6-tetrahydro-pyridazin-3-yl)-phenoxy]-acetamide], the IC50 at PDE3 (read-out: PDE3 inhibition IC50) is under 1000 nM.

For `O=C1CCC(c2ccc(OCC(=O)N3CC(NCC(O)COc4cccc5[nH]c6ccccc6c45)C3)c(Cl)c2)=NN1` (stereo not drawn) [Compound 75, 6-[4-(2-{3-[3-(9H-Carbazol-4-yloxy)-2-hydroxy-propylamino]-azetidin-1-yl}-2-oxo-ethoxy)-3-chloro-phenyl]-4,5-dihydro-2H-pyridazin-3-one], at PDE3 (read-out: PDE3 inhibition IC50), the 50% inhibitory concentration (IC50) is under 1000 nM.

The values are drawn from US20080255134A1 (Artesian Therapeutics, Inc., priority 2004, published 2008).
